Data on four compounds can be found in patent publication US7585977B2, “Selective estrogen receptor modulators containing a phenylsulfonyl group” (Eli Lilly and Company, priority 2005, dated 2009).

SMILES strings stand for the structures. pIC50: −log10 of the molar value. Where a name gives a salt, the structure may show the parent alone.

The test system of data set [1] is Ishikawa human endometrial tumor cells. Kind of data set: Ishikawa Cell Proliferation Assay, agonist mode (alkaline phosphatase readout). In kind it is cell-based. As to conditions: versus the response to tamoxifen, read-out: relative % efficacy.
Data set [2] shares this test system. Nature of the data set: Ishikawa Cell Proliferation Assay, antagonist mode (block of estradiol stimulation). The format is cell-based. As to the method: Ishikawa Cell Proliferation Assay: This assay measures cell proliferation (using an alkaline phosphatase readout) in both an agonist mode in the presence of a compound of the present invention alone, and in an antagonist mode in which the ability of a compound of the present invention to block estradiol stimulation of growth is measured.
Ishikawa human endometrial tumor cells are maintained in MEM (minimum essential medium, with Earle's salts and L-Glutamine, Gibco BRL, Gaithersburg, Md.), supplemented with 10% fetal bovine serum (FBS) (V/V), (Gibco BRL). […]
For the agonist mode, plates receive 25 μl/well of assay medium followed by 25 μl/well of a diluted compound of the present invention (at 6× the final concentrations). […] After a 20-minute incubation, plates are read on a spectophotometer at 405 nm.
The data is fitted to a linear interpolation to derive EC50 (for agonist mode) or IC50 (for antagonist mode) values. For the antagonist mode, a % efficacy for each compound is calculated versus E2 (1 nM) alone. For the agonist mode, a % efficacy for each compound is calculated versus the response to tamoxifen.

Data set [3] has as its system immature (3 week old) female rats. Nature of the data set: 3-Day Rat Uterus Antagonist Assay. In kind it is in vivo. As to conditions: oral, 3 days, with E2 0.1 mg/kg.
Source text: 3-Day Rat Uterus Antagonist Assay: This model for uterine antagonism utilizes immature (3 week old) female rats that are highly sensitive to estrogenic stimulation of the uterus given that their circulating estrogen levels are prepubertal. The uteri from immature rats are fully responsive to exogenous estrogen, yet are quiescent in the absence of exogenous estrogen. Administration of exogenous estrogen to immature rats produces a reliable elevation of uterine weight, which can be used to study uterine antagonist effects.
Test compounds are dissolved in 20% β-hydroxycyclodextrin and administered by oral gavage in a volume of 0.2 mL daily (15 min. prior to the ethynyl estradiol gavage). A vehicle control, E2 alone and E2+raloxifene are also done as controls. The animals are fasted overnight following the final dose. […]
Uterine weight/body weight ratios (UWR) are calculated for each animal. The percent inhibition of the estrogen-induced response is then calculated by the following formula: percent inhibition=100×(UWRestrogen−UWRtest compound/UWRestrogen−UWRcontrol). […] Both the UWR data and the percent inhibition data were statistically analyzed by one way analysis of variance (ANOVA) with post-hoc testing by Fisher's PLSD when indicated by a p≦0.05. […]
Data set [4] relates to mature, ovariectomized rats. Nature of the data set: 4-Day OVX Rat Uterine Agonist Assay. The format is in vivo. To be noted: 4 days of treatment, 3 doses. As to the method: Cholesterol levels are also measured to compare relative ability to lower cholesterol with other SERMs. If there is any question of uterine stimulation, histological examination will determine epithelial cell height.

Take `CCS(=O)(=O)c1cc(-c2ccc3cc(O)ccc3c2Oc2ccc(OCCN3CCCCC3)cc2)cc(S(=O)(=O)CC)c1` [Example 56, 6-(3,5-Bis-ethanesulfonyl-phenyl)-5-[4-(2-piperidin-1-yl-ethoxy)-phenoxy]-naphthalen-2-ol Hydrochloride]: in data set [1], the Emax turned out to be 71.8%.

In general, pIC50 refers to the negative decadic logarithm of the IC50, by convention in mol/L. High values mean a small IC50, low ones a large IC50. `CS(=O)(=O)c1cccc(-c2ccc3cc(O)ccc3c2Oc2ccc(OCCN3CCCCC3)cc2)c1` [Example 16, 6-(3-Methanesulfonyl-phenyl)-5-[4-(2-piperidin-1-yl-ethoxy)-phenoxy]-naphthalen-2-ol Hydrochloride]: the pIC50 in data set [2] (1 nM E2) is 7.45. The Emax in data set [2] (versus E2 (1 nM) alone, read-out: % efficacy (inhibition of the 1 nM estradiol response)) stood at 107%.

Take `CS(=O)(=O)c1ccc(-c2sc3cc(O)ccc3c2Oc2ccc(OCCN3CCCCC3)cc2)cc1.Cl` [Example 92, 2-(4-Methanesulfonyl-phenyl)-3-[4-(2-piperidin-1-yl-ethoxy)-phenoxy]-benzo[b]thiophen-6-ol Hydrochloride]: in data set [3], the “% antagonism” value was 62.7% and the ED50 was determined as 0.53 mpk.

Regarding `CCS(=O)(=O)c1ccc(-c2ccc3cc(O)ccc3c2Oc2ccc(OCCN3CCCCC3)cc2)cc1.Cl` [Example 14, 6-(4-Ethanesulfonyl-phenyl)-5-[4-(2-piperidin-1-yl-ethoxy)-phenoxy]-naphthalen-2-ol Hydrochloride], the “uterine eosinophil peroxidase (EPO) activity” value in data set [4] was “did not cause dose-related statistically significant increases”.
